Results on 13 molecules are retold here after PubChem BioAssay AID1259408 (Genetic Toxicology Data Bank (GENE-TOX), 2018).

Activity calls are given as the source filed them. The rule behind the calls is not given here.

The data set deals with GENE-TOX genotoxicity assays, various organisms and cells. In words: GENE-TOX mutagenicity studies. The conditions noted are these: for call: Assay Type: In vivo carcinogenicity studies, Assay Code: CCG+.
[1] abbreviates: Species/Cell Type: Drosophila melanogaster, Assay Type: Sex-linked recessive lethal gene mutation, Assay Code: SRL+, Evaluation Type: Evaluation A (Pre-1980).
[2] abbreviates: Species/Cell Type: Escherichia coli WP2 UVRA, Assay Type: Tryptophan reverse gene mutation, Assay Code: WPU+, Evaluation Type: Evaluation A (Pre-1980).
[3] abbreviates: Species/Cell Type: Nonhuman, Evaluation Type: Evaluation A (Pre-1980).
The mark [4] stands for this setting: Species/Cell Type: Nonhuman, Assay Type: Sister-chromatid exchange (SCE) in vitro, Assay Code: SC2+D, Dose Response: With dose response, Evaluation Type: Evaluation B (Post-1980).
The mark [5] stands for this setting: Species/Cell Type: Nonhuman, Assay Type: Sister-chromatid exchange (SCE) in vivo, Assay Code: SC3+D, Dose Response: With dose response, Evaluation Type: Evaluation B (Post-1980).
Where [6] appears, read: Species/Cell Type: Nonhuman, Assay Type: Sister-chromatid exchange (SCE) in vitro, Assay Code: SC2+, Evaluation Type: Evaluation B (Post-1980).
Setting [7] is: Species/Cell Type: Syrian hamster embryo (SA7/SHE) cells, Assay Type: Cell transformation, viral enhanced, Assay Code: CT7-, Evaluation Type: Evaluation A (Pre-1980).
[8] abbreviates: Species/Cell Type: Human, Sex: Male, Assay Type: Sperm morphology, Assay Code: SPH+, Evaluation Type: Evaluation A (Pre-1980).
Where [9] appears, read: Species/Cell Type: Salmonella typhimurium (one or more of the five standard strains: TA98, TA100, TA1535, TA1537, and TA1538), Assay Type: Histidine reverse gene mutation, Ames assay, Assay Code: SAL+*, Activation: With metabolic activation, Evaluation Type: Evaluation A (Pre-1980).

Take `CN(N=O)C(N)=O`: the mutagenic call reads like this: (Species/Cell Type: Allium cepa, Assay Type: Chromosome aberrations, Assay Code: ALC+D, Dose Response: With dose response, Evaluation Type: Evaluation A (Pre-1980)) “active; positive”; (Species/Cell Type: Arabidopsis species, Assay Type: Gene mutation, Assay Code: ARM+D, Dose Response: With dose response, Evaluation Type: Evaluation A (Pre-1980)) “active; positive”; (Species/Cell Type: Chinese hamster lung (V79) cells, Assay Type: Forward gene mutation at the HPRT or ouabain locus, Assay Code: V79+, Evaluation Type: Evaluation A (Pre-1980)) “active; positive”; (Species/Cell Type: Chinese hamster ovary (CHO) cells, Assay Type: Forward gene mutation at the HPRT locus, Assay Code: CHO+D, Dose Response: With dose response, Evaluation Type: Evaluation A (Pre-1980)) “active; positive”; (Species/Cell Type: Drosophila melanogaster, Assay Type: Aneuploidy, partial sex chromosome loss, chromosome aberrations, Assay Code: DAP+M, Evaluation Type: Evaluation A (Pre-1980)) “active; positive”; (Species/Cell Type: Drosophila melanogaster, Assay Type: Aneuploidy, whole sex chromosome loss, chromosome aberrations, Assay Code: DAC+M, Evaluation Type: Evaluation A (Pre-1980)) “active; positive”. The mutagenic call reads like this: under setting [1], “active; positive”; (Species/Cell Type: Drosophila melanogaster, Sex: Male, Assay Type: Heritable translocation test, chromosome aberrations, Assay Code: DHT+, Evaluation Type: Evaluation A (Pre-1980)) “active; positive”; (Species/Cell Type: Escherichia coli WP2, Assay Type: Tryptophan reverse gene mutation, Assay Code: WP2+, Evaluation Type: Evaluation A (Pre-1980)) “active; positive”; under setting [2], “active; positive”; (Species/Cell Type: Escherichia coli polA (W3119 vs P3478), Assay Type: Rec-assay, DNA effects (bacterial DNA repair), Assay Code: RE1+, Evaluation Type: Evaluation A (Pre-1980)) “active; positive”; (Species/Cell Type: Glycine max (soybean), Assay Type: Gene mutation, Assay Code: GLM+, Evaluation Type: Evaluation A (Pre-1980)) “active; positive”. Besides, the mutagenic call runs as follows: (Species/Cell Type: Hordeum vulgare (barley), Assay Type: Chromosome aberrations, Assay Code: HOC+, Evaluation Type: Evaluation A (Pre-1980)) “active; positive”; (Species/Cell Type: Hordeum vulgare (barley), Assay Type: Gene mutation, Assay Code: HOM+, Evaluation Type: Evaluation A (Pre-1980)) “active; positive”; (Species/Cell Type: Human cell culture, Assay Type: Chromosome aberrations in vitro, Assay Code: CYZ+, Evaluation Type: Evaluation A (Pre-1980)) “active; positive”; (Species/Cell Type: Human diploid fibroblasts, Assay Type: Unscheduled DNA synthesis (UDS) in vitro, DNA effects, Assay Code: UDH+, Evaluation Type: Evaluation A (Pre-1980)) “active; positive”; (Species/Cell Type: Human lymphocytes, Assay Type: Sister-chromatid exchange (SCE) in vitro, Assay Code: SCL+D, Dose Response: With dose response, Evaluation Type: Evaluation B (Post-1980)) “active; positive”; (Species/Cell Type: Human, Assay Type: Sister-chromatid exchange (SCE) in vitro, Assay Code: SC1+D, Dose Response: With dose response, Evaluation Type: Evaluation B (Post-1980)) “active; positive”. Also, the mutagenic call by setting is: (Species/Cell Type: Mammalian polychromatic erythrocytes, Assay Type: Micronucleus test, chromosome aberrations, Assay Code: MNTT, Evaluation Type: Evaluation A (Pre-1980)) “no conclusion”; (Species/Cell Type: Mouse germ cells, Sex: Male, Assay Type: Unscheduled DNA synthesis (UDS) in vivo, DNA effects, Assay Code: UDT+, Evaluation Type: Evaluation A (Pre-1980)) “active; positive”; (Species/Cell Type: Mouse, Sex: Male, Assay Type: Sperm morphology, Assay Code: SPI+, Evaluation Type: Evaluation A (Pre-1980)) “active; positive”; (Species/Cell Type: Neurospora crassa, Assay Type: Forward gene mutation, Assay Code: NEF+, Evaluation Type: Evaluation A (Pre-1980)) “active; positive”; (Species/Cell Type: Neurospora crassa, Assay Type: Reverse gene mutation, Assay Code: NER+, Evaluation Type: Evaluation A (Pre-1980)) “active; positive”; (Species/Cell Type: Nonhuman, Assay Type: Sister-chromatid exchange (SCE) in vitro, Assay Code: SC2+, Evaluation Type: Evaluation A (Pre-1980)) “active; positive”. The mutagenic call reads like this: under setting [4], “active; positive”; under setting [5], “active; positive”; (Species/Cell Type: Rat primary hepatocytes, Assay Type: Unscheduled DNA synthesis (UDS) in vitro, DNA effects, Assay Code: UDP+, Evaluation Type: Evaluation A (Pre-1980)) “active; positive”; (Species/Cell Type: Rodents, Sex: Male, Assay Type: Dominant lethal test, Assay Code: DLT-, Evaluation Type: Evaluation A (Pre-1980)) “inactive; negative”; (Species/Cell Type: Saccharomyces cerevisiae, Assay Type: Aneuploidy, chromosome aberrations, Assay Code: YEN+, Evaluation Type: Evaluation A (Pre-1980)) “active; positive”; (Species/Cell Type: Saccharomyces cerevisiae, Assay Type: Mitotic recombination or gene conversion, Assay Code: YEC+, Evaluation Type: Evaluation A (Pre-1980)) “active; positive”. The mutagenic call was “active; positive” (Species/Cell Type: Saccharomyces cerevisiae, Assay Type: Reverse gene mutation, Assay Code: YER+, Evaluation Type: Evaluation A (Pre-1980)); “active; positive” (Species/Cell Type: Salmonella typhimurium (one or more of the five standard strains: TA98, TA100, TA1535, TA1537, and TA1538), Assay Type: Histidine reverse gene mutation, Ames assay, Assay Code: SAL+, Evaluation Type: Evaluation A (Pre-1980)); “active; positive” (Species/Cell Type: Salmonella typhimurium, Escherichia coli, Serratia marcesens, Assay Type: Forward and reverse gene mutation, host-mediated assay, Assay Code: HMN+, Evaluation Type: Evaluation A (Pre-1980)); “active; positive” (Species/Cell Type: Vicia faba, Assay Type: Chromosome aberrations, Assay Code: VIC+, Evaluation Type: Evaluation A (Pre-1980)); “active; positive” (Species/Cell Type: Zea mays (corn), Assay Type: Gene mutation, Assay Code: ZEM+D, Dose Response: With dose response, Evaluation Type: Evaluation A (Pre-1980)). Also, the call under setting [3] was “active; positive”.
`CCCCOC(=O)c1ccccc1C(=O)OCCCC`: the mutagenic call is “active; positive” under setting [6]; “no conclusion” (Species/Cell Type: Nonhuman, Assay Type: Sister-chromatid exchange (SCE) in vitro, Assay Code: SC2T, Evaluation Type: Evaluation A (Pre-1980)); “inactive; negative” (Species/Cell Type: Saccharomyces cerevisiae, Assay Type: Reverse gene mutation, Assay Code: YER-*, Activation: With metabolic activation, Evaluation Type: Evaluation A (Pre-1980)).
Regarding `[Li+]`, the mutagenic call is “inactive; negative” (Species/Cell Type: Bacillus subtilis (H17 vs M45), Assay Type: Rec-assay, spot test, DNA effects (bacterial DNA repair), Assay Code: REW-, Evaluation Type: Evaluation A (Pre-1980)) and “inactive; negative” under setting [7].
For the molecule `C[C@]12CC[C@H]3[C@@H](CCC4=CC(=O)CC[C@@]43C)[C@@H]1CC[C@@H]2OC(=O)CCC1CCCC1`, under setting [8], the mutagenic call was “active; positive”.
Regarding `S=C=S`, the mutagenic call under setting [8] is “active; positive”.
In the case of `CC1CCc2c1ccc1c2ccc2ccccc21` (stereo unspecified), the mutagenic call under setting [9] was “active; positive”.
Regarding `Cc1cc(N(CCCl)CCCl)ccc1N=Nc1ccccc1C(=O)O`, the mutagenic call under setting [1] was “active; positive”.
Take `COc1cc([C@@H]2c3cc4c(cc3[C@@H](O)[C@H]3COC(=O)[C@H]23)OCO4)cc(OC)c1O`: the mutagenic call (Species/Cell Type: Chinese hamster ovary (CHO) cells, Assay Type: Forward gene mutation at the HPRT locus, Assay Code: CHOT, Evaluation Type: Evaluation B (Post-1980)) is given as “no conclusion”.
As to `CC(=O)Oc1c(Cl)c(Cl)c(Cl)c(Cl)c1Cl`, the mutagenic call (Species/Cell Type: Bacillus subtilis (H17 vs M45), Assay Type: Rec-assay, spot test, DNA effects (bacterial DNA repair), Assay Code: REWT, Evaluation Type: Evaluation A (Pre-1980)) was “no conclusion”.
For the molecule `C1COCCO1`, the call under setting [3] was “active; positive”. Also, the mutagenic call under setting [7] was “inactive; negative”.
`C=CC#N`: the mutagenic call reads like this: (Species/Cell Type: Drosophila melanogaster, Assay Type: Sex-linked recessive lethal gene mutation, Assay Code: SRLT, Evaluation Type: Evaluation A (Pre-1980)) “no conclusion”; (Species/Cell Type: Escherichia coli WP2, Assay Type: Tryptophan reverse gene mutation, Assay Code: WP2+D, Dose Response: With dose response, Evaluation Type: Evaluation A (Pre-1980)) “active; positive”; under setting [2], “active; positive”; (Species/Cell Type: Mammalian polychromatic erythrocytes, Assay Type: Micronucleus test, chromosome aberrations, Assay Code: MNT-, Evaluation Type: Evaluation B (Post-1980)) “inactive; negative”; under setting [4], “active; positive”; under setting [5], “active; positive”. Moreover, the mutagenic call by setting is: under setting [9], “active; positive”; (Species/Cell Type: Syrian hamster embryo (SA7/SHE) cells, Assay Type: Cell transformation, viral enhanced, Assay Code: CT7+, Evaluation Type: Evaluation A (Pre-1980)) “active; positive”; (Species/Cell Type: Syrian hamster embryo (SHE) cells, Assay Type: Cell transformation, focus assay, Assay Code: CTF+, Evaluation Type: Evaluation A (Pre-1980)) “active; positive”. The call under setting [3] was “active; positive”.
`CCCCCc1cc(OC(=O)CCCN2CCOCC2)c2c(c1)OC(C)(C)[C@@H]1CCC(C)=C[C@@H]21`: the mutagenic call (Species/Cell Type: Human diploid fibroblasts, Assay Type: Unscheduled DNA synthesis (UDS) in vitro, DNA effects, Assay Code: UDH-, Evaluation Type: Evaluation A (Pre-1980)) is “inactive; negative”.
With `C=COC=C`, the mutagenic call under setting [6] was “active; positive”.
